Data published in patent US9113629B2, “4-amino-6-(4-substituted-phenyl)-picolinates and 6-amino-2-(4-substituted-phenyl)-pyrimidine-4-carboxylates and their use as herbicides” (DOW AGROSCIENCES LLC, priority 2013, dated 2015).
Like-named read-outs stand apart in the source and are kept apart here.

How the values were obtained:
Assay in all cases: Post-emergent Test III, herbicidal activity in wheat and barley
Format in all cases: in vivo
[1] = tested on: KCHSC: kochia (Kochia scoparia); conditions: for pest or weed control at 35 g/ha / pest or weed control at 70 g/ha: Bassia scoparia, post-emergence, 504 h; for pest or weed control at 35 g/ha: 35 g ai/ha; for pest or weed control at 70 g/ha: 70 g ai/ha
Procedure, shortened: (§1)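 GR20, GR50, GR80 and GR90 come from probit analysis of visual injury scores (0 = none, 100 = complete kill) taken 21 d after treatment. Foliar application was by track sprayer delivering 187 L/ha at five rates, from high down to 1/16×, onto greenhouse plants at the 2–3 leaf stage, with solvent-blank controls.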

[2] = tested on: HORSS: barley, including spring and winter (Hordeum vulgare); conditions: for GR20 HORSS: probit analysis
Procedure, shortened: as §1

[3] = tested on: TRZSS: wheat, including spring and winter (Triticum aestivum); conditions: for GR20 TRZSS: probit analysis
Procedure, shortened: as §1

[4] = tested on: SASKR: Russian thistle (Salsola iberica)
Procedure, shortened: as §1

[5] = tested on: VIOSS: wild pansy (Viola tricolor), field violet (Viola arvensis)
Procedure, shortened: as §1

[6] = tested on: MATSS: scented mayweed (Matricaria chamomilla), pineappleweed (Matricaria matricarioides); conditions: for pest or weed control at 35 g/ha / pest or weed control at 70 g/ha: Matricaria chamomilla, post-emergence, 504 h; for pest or weed control at 35 g/ha: 35 g ai/ha; for pest or weed control at 70 g/ha: 70 g ai/ha
Procedure, shortened: as §1

[7] = tested on: VERPE: bird's-eye speedwell (veronica persica); conditions: 21 days after application
Procedure, shortened: as §1

[8] = Post-emergent Test III, read-out: Visual Growth Reduction (%) 21 Days After Application, KCHSC
[9] = Post-emergent Test III, 21 days after application, dose for 20% growth reduction, probit analysis
[10] = Post-emergent Test III, 21 days after application, dose for 50% growth reduction, probit analysis
[11] = Post-emergent Test III, 21 days after application, dose for 80% growth reduction, probit analysis
[12] = Post-emergent Test III, 35 g ai/ha
[13] = Post-emergent Test III, 70 g ai/ha
[14] = Post-emergent Test III, 21 days after application, dose for 20% growth reduction
[15] = Post-emergent Test III, read-out: Visual Growth Reduction (%) 21 Days After Application, MATSS
[16] = 21 days after application, read-out: Visual Gorowth Reduction (%) 21 days After Application KCHSC
[17] = probit analysis, dose for 50 percent growth reduction, 21 days after application
[18] = probit analysis, dose for 80 percent growth reduction, 21 days after application
[19] = dose for 20 percent growth reduction (crop), 21 days after application
[20] = 21 days after application, read-out: Visual Gorowth Reduction (%) 21 days After Application MATSS

COC(=O)c1nc(-c2ccc(C(F)(F)F)c(F)c2F)c(F)c(N)c1Cl [Compound 149]
pest or weed control at 35 g/ha [1, 8]: 30 to 44% | pest or weed control at 70 g/ha [1, 8]: 60 to 74% | GR20, KCHSC [1, 9]: 18 g ai/ha | GR50 KCHSC [1, 10]: 56 g ai/ha | GR80 KCHSC [1, 11]: >140 g ai/ha | Visual Growth Reduction (%) 21 Days After Application, HORSS [2, 12]: D (60-74) | Visual Growth Reduction (%) 21 Days After Application, HORSS [2, 13]: C (75-84) | GR20 HORSS [2, 14]: 21 g ai/ha | Visual Growth Reduction (%) 21 Days After Application, TRZSS [3, 12]: E (45-59) | Visual Growth Reduction (%) 21 Days After Application, TRZSS [3, 13]: C (75-84) | GR20 TRZSS [3, 14]: 20 g ai/ha | Visual Growth Reduction (%) 21 Days After Application, SASKR [4, 12]: D (60-74) | Visual Growth Reduction (%) 21 Days After Application, SASKR [4, 13]: D (60-74) | GR20, SASKR [4, 9]: 6 g ai/ha | GR50 SASKR [4, 10]: 24 g ai/ha | GR80 SASKR [4, 11]: 100 g ai/ha | Visual Growth Reduction (%) 21 Days After Application, VIOSS [5, 12]: F (30-44) | Visual Growth Reduction (%) 21 Days After Application, VIOSS [5, 13]: D (60-74) | GR20, VIOSS [5, 9]: 11 g ai/ha | GR50 VIOSS [5, 10]: 44 g ai/ha | GR80 VIOSS [5, 11]: >140 g ai/ha | pest or weed control at 35 g/ha [6, 15]: 45 to 59% | pest or weed control at 70 g/ha [6, 15]: 60 to 74% | GR20, MATSS [6, 9]: 9 g ai/ha | GR50 MATSS [6, 10]: 38 g ai/ha | GR80 MATSS [6, 11]: >140 g ai/ha

COc1c(N)nc(-c2ccc(I)cc2F)nc1C(=O)O [Compound 72]
pest or weed control at 35 g/ha [1, 16]: 60 to 74% | pest or weed control at 70 g/ha [1, 16]: 60 to 74% | GR50 KCHSC [1, 17]: 27 g ai/ha | GR80 KCHSC [1, 18]: 105 g ai/ha | pest or weed control at 35 g/ha ([2]; Hordeum vulgare, post-emergence, 504 h, 35 g ai/ha, 21 days after application, read-out: Visual Gorowth Reduction (%) 21 days After Application HORSS): 45 to 59% | pest or weed control at 70 g/ha ([2]; Hordeum vulgare, post-emergence, 504 h, 70 g ai/ha, 21 days after application, read-out: Visual Gorowth Reduction (%) 21 days After Application HORSS): 60 to 74% | GR20 HORSS [2, 19]: 5 g ai/ha | pest or weed control at 35 g/ha ([3]; Triticum aestivum, post-emergence, 504 h, 35 g ai/ha, 21 days after application, read-out: Visual Gorowth Reduction (%) 21 days After Application TRZSS): 75 to 84% | pest or weed control at 70 g/ha ([3]; Triticum aestivum, post-emergence, 504 h, 70 g ai/ha, 21 days after application, read-out: Visual Gorowth Reduction (%) 21 days After Application TRZSS): 85 to 94% | GR20 TRZSS [3, 19]: 1 g ai/ha | pest or weed control at 35 g/ha ([7]; Veronica persica, post-emergence, 504 h, 35 g ai/ha, read-out: Visual Gorowth Reduction (%) 21 days After Application VERPE): 85 to 94% | pest or weed control at 70 g/ha ([7]; Veronica persica, post-emergence, 504 h, 70 g ai/ha, read-out: Visual Gorowth Reduction (%) 21 days After Application VERPE): 95 to 100% | GR50 VERPE ([7]; probit analysis, dose for 50 percent growth reduction): 1 g ai/ha | GR80 VERPE ([7]; probit analysis, dose for 80 percent growth reduction): 8 g ai/ha | pest or weed control at 35 g/ha ([4]; Salsola tragus, post-emergence, 504 h, 35 g ai/ha, 21 days after application, read-out: Visual Gorowth Reduction (%) 21 days After Application SASKR): 30 to 44% | pest or weed control at 70 g/ha ([4]; Salsola tragus, post-emergence, 504 h, 70 g ai/ha, 21 days after application, read-out: Visual Gorowth Reduction (%) 21 days After Application SASKR): 60 to 74% | GR50 SASKR [4, 17]: 48 g ai/ha | GR80 SASKR [4, 18]: 106 g ai/ha | pest or weed control at 35 g/ha ([5]; Viola tricolor, post-emergence, 504 h, 35 g ai/ha, 21 days after application, read-out: Visual Gorowth Reduction (%) 21 days After Application VIOSS): 30 to 44% | pest or weed control at 70 g/ha ([5]; Viola tricolor, post-emergence, 504 h, 70 g ai/ha, 21 days after application, read-out: Visual Gorowth Reduction (%) 21 days After Application VIOSS): 45 to 59% | GR50 VIOSS [5, 17]: 67 g ai/ha | GR80 VIOSS [5, 18]: >140 g ai/ha | pest or weed control at 35 g/ha [6, 20]: 0 to 29% | pest or weed control at 70 g/ha [6, 20]: 30 to 44% | GR50 MATSS [6, 17]: 126 g ai/ha | GR80 MATSS [6, 18]: >140 g ai/ha

COC(=O)c1nc(-c2ccc(C(F)(F)F)c(F)c2)c(F)c(N)c1Cl [Compound 165]
pest or weed control at 35 g/ha [1, 8]: 85 to 94% | pest or weed control at 70 g/ha [1, 8]: 85 to 94% | GR50 KCHSC [1, 10]: 9 g ai/ha | GR80 KCHSC [1, 11]: 30 g ai/ha | Visual Growth Reduction (%) 21 Days After Application, HORSS [2, 12]: C (75-84) | Visual Growth Reduction (%) 21 Days After Application, HORSS [2, 13]: B (85-94) | GR20 HORSS [2, 14]: 9 g ai/ha | Visual Growth Reduction (%) 21 Days After Application, TRZSS [3, 12]: D (60-74) | Visual Growth Reduction (%) 21 Days After Application, TRZSS [3, 13]: C (75-84) | GR20 TRZSS [3, 14]: 8 g ai/ha | Visual Growth Reduction (%) 21 Days After Application, SASKR [4, 12]: C (75-84) | Visual Growth Reduction (%) 21 Days After Application, SASKR [4, 13]: B (85-94) | GR50 SASKR [4, 10]: 4 g ai/ha | GR80 SASKR [4, 11]: 46 g ai/ha | Visual Growth Reduction (%) 21 Days After Application, VIOSS [5, 12]: F (30-44) | Visual Growth Reduction (%) 21 Days After Application, VIOSS [5, 13]: D (60-74) | GR50 VIOSS [5, 10]: 55 g ai/ha | GR80 VIOSS [5, 11]: >140 g ai/ha | pest or weed control at 35 g/ha [6, 15]: 0 to 29% | pest or weed control at 70 g/ha [6, 15]: 45 to 59% | GR50 MATSS [6, 10]: 81 g ai/ha | GR80 MATSS [6, 11]: >140 g ai/ha
